Reference: PMC11944513, “Investigation on Human Carbonic Anhydrase IX and XII Inhibitory Activity and A549 Antiproliferative Activity of a New Class of Coumarinamides” (Pharmaceuticals, 2025)

Tests used:
h-CA XII = h-CA XII (Homo sapiens, UniProt O43570); test: stopped-flow CO2 hydrase assay, h-CA XII
h-CA II = h-CA II (Homo sapiens, UniProt P00918); test: stopped-flow CO2 hydrase assay, h-CA II
h-CA I = h-CA I (Homo sapiens, UniProt P00915); test: stopped-flow CO2 hydrase assay, h-CA I
h-CA IX = h-CA IX (Homo sapiens, UniProt Q16790); test: stopped-flow CO2 hydrase assay, h-CA IX
[1] = test system: normal bronchial epithelial cells (BEAS-2B); test: cell viability (MTT assay), BEAS-2B; assay type: cell-based, human; settings: Homo sapiens, BEAS-2B, 48 h exposure, nonlinear regression, predictive estimates
Experimental: Human bronchial epithelial (BEAS-2B; CRL-3588) and human lung carcinoma (A549; CCL-185) cell lines were obtained from ATCC®. BEAS and A549 cells were maintained in complete RPMI 1640 (Merck, Darmstadt, Germany) at 37 °C and 5% CO2. The medium was supplemented with 10% heat-inactivated fetal bovine serum (FBS), 1% penicillin/streptomycin and 1% sodium pyruvate.
Cells were seeded at different densities according to the different experimental techniques performed (MTT assay and cell cycle analysis) and left to adhere for 24 h. Next, the medium was removed, and cells were treated with tested compounds, dissolved in dimethyl sulfoxide (DMSO) to achieve concentrations ranging from 0 µM (untreated control = CTRL) to 150 µM. The final DMSO concentration was kept below 0.3%. Cell viability was evaluated at up to 72 h post-treatment. Images were acquired 48 h after treatments by means of a light phase-contrast microscope equipped with a camera (Leica). Images were acquired and analyzed by the Leica Application Suite LAS EZ version 3.4 (Leica, Wetzlar, Germany).
BEAS and A549 cells were seeded in 96-well culture-treated plates (Falcon®, Corning Incorporated, Brooklyn, NY, USA) at a density of 0.5 × 10^4 cells/well. Untreated cells were set as the experimental control, representing 100% of cell viability. Exposure times varied from 24 up to 72 h. At the established time points (24, 48 and 72 h), the exposure medium was replaced with fresh medium containing 0.5 mg/mL 3-(4,5-dimethylthiazol-2-yl)-2,5-diphenyltetrazolium bromide (MTT) (Merck, Darmstadt, Germany) and processed as previously reported. The optical density in each well was measured at a wavelength of 540 nm using a spectrophotometer (Thermo Fisher Scientific, Waltham, MA, USA). Each experiment was performed in triplicate per experimental conditions (n = 3).

Sequence of h-CA XII (O43570 25-354): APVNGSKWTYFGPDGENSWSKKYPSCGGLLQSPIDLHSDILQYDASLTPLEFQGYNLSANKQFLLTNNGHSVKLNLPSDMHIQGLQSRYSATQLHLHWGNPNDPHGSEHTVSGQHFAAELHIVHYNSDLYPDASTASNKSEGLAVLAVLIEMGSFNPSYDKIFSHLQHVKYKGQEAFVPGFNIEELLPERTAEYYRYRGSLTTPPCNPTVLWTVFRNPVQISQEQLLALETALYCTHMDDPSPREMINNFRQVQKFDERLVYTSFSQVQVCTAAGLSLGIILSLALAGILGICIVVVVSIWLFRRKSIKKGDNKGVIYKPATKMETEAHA
Sequence of h-CA I (P00915 whole entry): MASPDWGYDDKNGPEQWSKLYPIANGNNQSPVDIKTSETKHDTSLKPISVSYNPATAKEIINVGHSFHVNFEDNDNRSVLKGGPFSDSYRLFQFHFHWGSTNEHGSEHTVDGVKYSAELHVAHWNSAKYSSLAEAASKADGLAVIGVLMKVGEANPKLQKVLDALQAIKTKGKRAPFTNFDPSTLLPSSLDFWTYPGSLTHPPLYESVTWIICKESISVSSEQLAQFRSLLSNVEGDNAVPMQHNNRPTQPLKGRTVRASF

Ki (h-CA XII) | Ki (h-CA II) | Ki (h-CA I) | Ki (h-CA IX) | Structure (SMILES) | IC50 [1]
73.1 µM | > 100 µM | > 100 µM | 63.1 µM | COc1cccc(CNC(=O)c2cc3ccc(O)cc3oc2=O)c1 [Compound 10, 7-Hydroxy-N-(3-Methoxybenzyl)-2-Oxo-2H-Chromene-3-Carboxamide] | 
57.6 µM | > 100 µM | > 100 µM | 73.2 µM | O=C(NCc1cccc(F)c1)c1cc2ccc(O)cc2oc1=O [Compound 14, N-(3-Fluorobenzyl)-7-Hydroxy-2-Oxo-2H-Chromene-3-Carboxamide] | 
42.6 µM | > 100 µM | > 100 µM | 33.9 µM | O=C(NCc1cccc(Cl)c1)c1cc2ccc(O)cc2oc1=O [Compound 20, N-(3-Chlorobenzyl)-7-Hydroxy-2-Oxo-2H-Chromene-3-Carboxamide] | 
50.8 µM | > 100 µM | > 100 µM | 84.7 µM | COc1ccc(CCNC(=O)c2cc3ccc(O)cc3oc2=O)cc1OC [Compound 27, N-(3,4-Dimethoxyphenethyl)-7-Hydroxy-2-Oxo-2H-Chromene-3-Carboxamide] | 
59.5 µM | > 100 µM | > 100 µM | 84.1 µM | O=C(c1cc2ccc(O)cc2oc1=O)N1CCN(Cc2ccccc2)CC1 [Compound 31, 3-(4-Benzylpiperazine-1-Carbonyl)-7-Hydroxy-2H-Chromen-2-One] | 
40.5 µM | > 100 µM | > 100 µM | 89.3 µM | Cc1cccc(N2CCN(C(=O)c3cc4ccc(O)cc4oc3=O)CC2)c1 [Compound 33, 7-Hydroxy-3-(4-(m-tolyl)piperazine-1-Carbonyl)-2H-Chromen-2-One] | 
56 µM | > 100 µM | > 100 µM | 83.2 µM | Cc1ccc(N2CCN(C(=O)c3cc4ccc(O)cc4oc3=O)CC2)cc1 [Compound 34, 7-Hydroxy-3-(4-(p-tolyl)piperazine-1-Carbonyl)-2H-Chromen-2-One] | 
41.4 µM | > 100 µM | > 100 µM | 82.2 µM | Cc1cccc(N2CCN(C(=O)c3cc4ccc(O)cc4oc3=O)CC2)c1C [Compound 35, 3-(4-(2,3-Dimethylphenyl)piperazine-1-Carbonyl)-7-Hydroxy-2H-Chromen-2-One] | 
69.7 µM | > 100 µM | > 100 µM | 78.1 µM | Cc1ccc(N2CCN(C(=O)c3cc4ccc(O)cc4oc3=O)CC2)c(C)c1 [Compound 36, 3-(4-(2,4-Dimethylphenyl)piperazine-1-Carbonyl)-7-Hydroxy-2H-Chromen-2-One] | 
63.4 µM | > 100 µM | > 100 µM | 75.9 µM | Cc1ccc(C)c(N2CCN(C(=O)c3cc4ccc(O)cc4oc3=O)CC2)c1 [Compound 37, 3-(4-(2,5-Dimethylphenyl)piperazine-1-Carbonyl)-7-Hydroxy-2H-Chromen-2-One] | 
46.8 µM | > 100 µM | > 100 µM | 68.1 µM | Cc1cc(C)cc(N2CCN(C(=O)c3cc4ccc(O)cc4oc3=O)CC2)c1 [Compound 39, 3-(4-(3,5-Dimethylphenyl)piperazine-1-Carbonyl)-7-Hydroxy-2H-Chromen-2-One] | 
63.8 µM | > 100 µM | > 100 µM | 85.2 µM | O=C(c1cc2ccc(O)cc2oc1=O)N1CCN(c2ccccc2[N+](=O)[O-])CC1 [Compound 40, 7-Hydroxy-3-(4-(2-Nitrophenyl)piperazine-1-Carbonyl)-2H-Chromen-2-One] | 
47.5 µM | > 100 µM | > 100 µM | 25.4 µM | O=C(c1cc2ccc(O)cc2oc1=O)N1CCN(c2cccc([N+](=O)[O-])c2)CC1 [Compound 41, 7-Hydroxy-3-(4-(3-Nitrophenyl)piperazine-1-Carbonyl)-2H-Chromen-2-One] | 
62.8 µM | > 100 µM | > 100 µM | 30.1 µM | O=C(c1cc2ccc(O)cc2oc1=O)N1CCN(c2ccc([N+](=O)[O-])cc2)CC1 [Compound 42, 7-Hydroxy-3-(4-(4-Nitrophenyl)piperazine-1-Carbonyl)-2H-Chromen-2-One] | 
79.9 µM | > 100 µM | > 100 µM | 40.4 µM | COc1cccc(N2CCN(C(=O)c3cc4ccc(O)cc4oc3=O)CC2)c1 [Compound 43, 7-Hydroxy-3-(4-(3-Methoxyphenyl)piperazine-1-Carbonyl)-2H-Chromen-2-One] | 

Second part, the compound before the results:

Structure (SMILES) | Ki (h-CA XII) | Ki (h-CA II) | Ki (h-CA I) | Ki (h-CA IX) | IC50 [1]
O=C(NCc1ccccc1)c1cc2ccc(O)cc2oc1=O [Compound 4, N-Benzyl-7-Hydroxy-2-Oxo-2H-Chromene-3-Carboxamide] | 7.5 µM | > 100 µM | > 100 µM | 42.2 µM | 344.9 ± 3.14 µM
COc1ccccc1CNC(=O)c1cc2ccc(O)cc2oc1=O [Compound 8, 7-Hydroxy-N-(2-Methoxybenzyl)-2-Oxo-2H-Chromene-3-Carboxamide] | 70.2 µM | > 100 µM | > 100 µM | 77.4 µM | 
O=C(NCc1ccc([N+](=O)[O-])cc1)c1cc2ccc(O)cc2oc1=O [Compound 11, 7-Hydroxy-N-(4-Nitrobenzyl)-2-Oxo-2H-Chromene-3-Carboxamide] | 49.8 µM | > 100 µM | > 100 µM | 75.7 µM | 
O=C(NCc1cccc([N+](=O)[O-])c1)c1cc2ccc(O)cc2oc1=O [Compound 12, 7-Hydroxy-N-(3-Nitrobenzyl)-2-Oxo-2H-Chromene-3-Carboxamide] | 55.2 µM | > 100 µM | > 100 µM | 64.7 µM | 
O=C(NCc1ccc(F)cc1)c1cc2ccc(O)cc2oc1=O [Compound 13, N-(4-Fluorobenzyl)-7-Hydroxy-2-Oxo-2H-Chromene-3-Carboxamide] | 70.5 µM | > 100 µM | > 100 µM | 86.9 µM | 
O=C(NCc1ccccc1C(F)(F)F)c1cc2ccc(O)cc2oc1=O [Compound 15, 7-Hydroxy-2-Oxo-N-(2-(Trifluoromethyl)benzyl)-2H-Chromene-3-Carboxamide] | 31.5 µM | > 100 µM | > 100 µM | 50 µM | 
O=C(NCc1cccc(C(F)(F)F)c1)c1cc2ccc(O)cc2oc1=O [Compound 16, 7-Hydroxy-2-Oxo-N-(3-(Trifluoromethyl)benzyl)-2H-Chromene-3-Carboxamide] | 64.4 µM | > 100 µM | > 100 µM | 77.1 µM | 
O=C(NCc1ccc(C(F)(F)F)cc1)c1cc2ccc(O)cc2oc1=O [Compound 17, 7-Hydroxy-2-Oxo-N-(4-(Trifluoromethyl)benzyl)-2H-Chromene-3-Carboxamide] | 54.1 µM | > 100 µM | > 100 µM | 83.7 µM | 
O=C(NCc1ccc(Br)cc1)c1cc2ccc(O)cc2oc1=O [Compound 18, N-(4-Bromobenzyl)-7-Hydroxy-2-Oxo-2H-Chromene-3-Carboxamide] | 26.1 µM | > 100 µM | > 100 µM | 60.7 µM | 
O=C(NCc1ccc(Cl)cc1)c1cc2ccc(O)cc2oc1=O [Compound 21, N-(4-Chlorobenzyl)-7-Hydroxy-2-Oxo-2H-Chromene-3-Carboxamide] | 39.7 µM | > 100 µM | > 100 µM | 80.7 µM | 
O=C(NCc1c(Cl)cccc1Cl)c1cc2ccc(O)cc2oc1=O [Compound 24, N-(2,6-Dichlorobenzyl)-7-Hydroxy-2-Oxo-2H-Chromene-3-Carboxamide] | 75.1 µM | > 100 µM | > 100 µM | 85.6 µM | 
COc1ccc(CCNC(=O)c2cc3ccc(O)cc3oc2=O)cc1 [Compound 26, 7-Hydroxy-N-(4-Methoxyphenethyl)-2-Oxo-2H-Chromene-3-Carboxamide] | 57.7 µM | > 100 µM | > 100 µM | 80.8 µM | 
O=C(NCCc1ccc(F)cc1)c1cc2ccc(O)cc2oc1=O [Compound 28, N-(4-Fluorophenethyl)-7-Hydroxy-2-Oxo-2H-Chromene-3-Carboxamide] | 66.9 µM | > 100 µM | > 100 µM | 80.4 µM | 
